Laboratory results published in ChEMBL document CHEMBL4346705, “(±)-trans-Dihydronarciclasine and (±)-trans-dihydrolycoricidine analogues modified in their ring A: Evaluation of their anticancer activity and a SAR study” (2019).

Columns and labels:
Assay type in all cases: functional
NCI-H522 = assay: Antiproliferative activity against human NCI-H522 cells assessed as cell viability at 10^-5 M incubated for 48 hrs by sulforhodamine B assay relative to control; conditions: NCI-H522, 48 h, read-out: Activity
MOLT-4 = assay: Antiproliferative activity against human MOLT4 cells assessed as cell viability at 10^-5 M incubated for 48 hrs by sulforhodamine B assay relative to control; conditions: MOLT-4, 48 h, read-out: Activity
HOP-62 = assay: Antiproliferative activity against human HOP62 cells assessed as cell viability at 10^-5 M incubated for 48 hrs by sulforhodamine B assay relative to control; conditions: HOP-62, 48 h, read-out: Activity
A498 = assay: Antiproliferative activity against human A498 cells assessed as cell viability at 10^-5 M incubated for 48 hrs by sulforhodamine B assay relative to control; conditions: A498, 48 h, read-out: Activity
SK-MEL-2 = assay: Antiproliferative activity against human SK-MEL-2 cells assessed as cell viability at 10^-5 M incubated for 48 hrs by sulforhodamine B assay relative to control; conditions: SK-MEL-2, 48 h, read-out: Activity
NCI-H322M = assay: Antiproliferative activity against human NCI-H322M cells assessed as cell viability at 10^-5 M incubated for 48 hrs by sulforhodamine B assay relative to control; conditions: read-out: Activity
SK-MEL-28 = assay: Antiproliferative activity against human SK-MEL-28 cells assessed as cell viability at 10^-5 M incubated for 48 hrs by sulforhodamine B assay relative to control; conditions: SK-MEL-28, 48 h, read-out: Activity
NCI-H23 = assay: Antiproliferative activity against human NCI-H23 cells assessed as cell viability at 10^-5 M incubated for 48 hrs by sulforhodamine B assay relative to control; conditions: NCI-H23, 48 h, read-out: Activity
HT-29 = assay: Antiproliferative activity against human HT-29 cells assessed as cell viability at 10^-5 M incubated for 48 hrs by sulforhodamine B assay relative to control; conditions: HT-29, 48 h, read-out: Activity
MDA-MB-231 = assay: Antiproliferative activity against human MDA-MB-231 cells assessed as cell viability at 10^-5 M incubated for 48 hrs by sulforhodamine B assay relative to control; conditions: MDA-MB-231, 48 h, read-out: Activity
SF-295 = assay: Antiproliferative activity against human SF295 cells assessed as cell viability at 10^-5 M incubated for 48 hrs by sulforhodamine B assay relative to control; conditions: SF-295, 48 h, read-out: Activity
UACC-62 = assay: Antiproliferative activity against human UACC62 cells assessed as cell viability at 10^-5 M incubated for 48 hrs by sulforhodamine B assay relative to control; conditions: UACC-62, 48 h, read-out: Activity
Hs-578T = assay: Antiproliferative activity against human Hs 578T cells assessed as cell viability at 10^-5 M incubated for 48 hrs by sulforhodamine B assay relative to control; conditions: read-out: Activity
NCI-H226 = assay: Antiproliferative activity against human NCI-H226 cells assessed as cell viability at 10^-5 M incubated for 48 hrs by sulforhodamine B assay relative to control; conditions: NCI-H226, 48 h, read-out: Activity
NCI/ADR-RES = assay: Antiproliferative activity against human NCI-ADR-RES cells assessed as cell viability at 10^-5 M incubated for 48 hrs by sulforhodamine B assay relative to control; conditions: read-out: Activity
LOX IMVI = assay: Antiproliferative activity against human LOXIMVI cells assessed as cell viability at 10^-5 M incubated for 48 hrs by sulforhodamine B assay relative to control; conditions: read-out: Activity
MCF7 = assay: Antiproliferative activity against human MCF7 cells assessed as cell viability at 10^-5 M incubated for 48 hrs by sulforhodamine B assay relative to control; conditions: MCF7, 48 h, read-out: Activity
SF-539 = assay: Antiproliferative activity against human SF539 cells assessed as cell viability at 10^-5 M incubated for 48 hrs by sulforhodamine B assay relative to control; conditions: SF-539, 48 h, read-out: Activity
MDA-MB-468 = assay: Antiproliferative activity against human MDA-MB-468 cells assessed as cell viability at 10^-5 M incubated for 48 hrs by sulforhodamine B assay relative to control; conditions: MDA-MB-468, 48 h, read-out: Activity
KM12 = assay: Antiproliferative activity against human KM12 cells assessed as cell viability at 10^-5 M incubated for 48 hrs by sulforhodamine B assay relative to control; conditions: KM12, 48 h, read-out: Activity
SK-MEL-5 = assay: Antiproliferative activity against human SK-MEL-5 cells assessed as cell viability at 10^-5 M incubated for 48 hrs by sulforhodamine B assay relative to control; conditions: SK-MEL-5, 48 h, read-out: Activity
SN12C = assay: Antiproliferative activity against human SN12C cells assessed as cell viability at 10^-5 M incubated for 48 hrs by sulforhodamine B assay relative to control; conditions: read-out: Activity
SNB-75 = assay: Antiproliferative activity against human SNB75 cells assessed as cell viability at 10^-5 M incubated for 48 hrs by sulforhodamine B assay relative to control; conditions: SNB-75, 48 h, read-out: Activity
CAKI-1 = assay: Antiproliferative activity against human Caki1 cells assessed as cell viability at 10^-5 M incubated for 48 hrs by sulforhodamine B assay relative to control; conditions: CAKI-1, 48 h, read-out: Activity
OVCAR-4 = assay: Antiproliferative activity against human OVCAR4 cells assessed as cell viability at 10^-5 M incubated for 48 hrs by sulforhodamine B assay relative to control; conditions: OVCAR-4, 48 h, read-out: Activity
EKVX = assay: Antiproliferative activity against human EKVX cells assessed as cell viability at 10^-5 M incubated for 48 hrs by sulforhodamine B assay relative to control; conditions: read-out: Activity
RXF 393 = assay: Antiproliferative activity against human RXF393 cells assessed as cell viability at 10^-5 M incubated for 48 hrs by sulforhodamine B assay relative to control; conditions: RXF 393, 48 h, read-out: Activity
OVCAR-8 = assay: Antiproliferative activity against human OVCAR8 cells assessed as cell viability at 10^-5 M incubated for 48 hrs by sulforhodamine B assay relative to control; conditions: OVCAR-8, 48 h, read-out: Activity

CCOc1c(OC)cc2c(c1OCC)C(=O)NC1C2CC(O)C(O)C1O (racemic)
viability at 10 µM (NCI-H522): 88.9%
viability at 10 µM (MOLT-4): 80.9%
viability at 10 µM (HOP-62): 106%
viability at 10 µM (A498): 110%
viability at 10 µM (SK-MEL-2): 103%
viability at 10 µM (NCI-H322M): 98.6%
viability at 10 µM (SK-MEL-28): 108%
viability at 10 µM (NCI-H23): 99.9%
viability at 10 µM (HT-29): 99.6%
viability at 10 µM (MDA-MB-231): 107%
viability at 10 µM (SF-295): 98.7%
viability at 10 µM (UACC-62): 95.7%
viability at 10 µM (Hs-578T): 99.3%
viability at 10 µM (NCI-H226): 97.4%
viability at 10 µM (NCI/ADR-RES): 109%
viability at 10 µM (LOX IMVI): 97.6%
viability at 10 µM (MCF7): 95.2%
viability at 10 µM (SF-539): 106%
viability at 10 µM (MDA-MB-468): 98.1%
viability at 10 µM (KM12): 102%
viability at 10 µM (SK-MEL-5): 99.8%
viability at 10 µM (SN12C): 101%
viability at 10 µM (SNB-75): 92.4%
viability at 10 µM (CAKI-1): 85.2%
viability at 10 µM (OVCAR-4): 103%
viability at 10 µM (EKVX): 97.5%
viability at 10 µM (RXF 393): 104%
viability at 10 µM (OVCAR-8): 97.1%

CCOc1c(OC)cc2c(c1O)C(=O)NC1C2CC(O)C(O)C1O (racemic)
viability at 10 µM (NCI-H522): 92.3%
viability at 10 µM (MOLT-4): 92.4%
viability at 10 µM (HOP-62): 98.6%
viability at 10 µM (A498): 99.5%
viability at 10 µM (SK-MEL-2): 106%
viability at 10 µM (NCI-H322M): 103%
viability at 10 µM (SK-MEL-28): 105%
viability at 10 µM (NCI-H23): 107%
viability at 10 µM (HT-29): 100%
viability at 10 µM (MDA-MB-231): 106%
viability at 10 µM (SF-295): 102%
viability at 10 µM (UACC-62): 93.1%
viability at 10 µM (Hs-578T): 100%
viability at 10 µM (NCI-H226): 99.8%
viability at 10 µM (NCI/ADR-RES): 110%
viability at 10 µM (LOX IMVI): 98.1%
viability at 10 µM (MCF7): 92.1%
viability at 10 µM (SF-539): 97.7%
viability at 10 µM (MDA-MB-468): 94.9%
viability at 10 µM (KM12): 104%
viability at 10 µM (SK-MEL-5): 101%
viability at 10 µM (SN12C): 104%
viability at 10 µM (SNB-75): 93.5%
viability at 10 µM (CAKI-1): 91.3%
viability at 10 µM (OVCAR-4): 107%
viability at 10 µM (EKVX): 98%
viability at 10 µM (RXF 393): 109%
viability at 10 µM (OVCAR-8): 101%

CCOc1cc2c(c(OC)c1OCC)C(=O)NC1C2CC(O)C(O)C1O (racemic)
viability at 10 µM (NCI-H522): 93.3%
viability at 10 µM (MOLT-4): 99.3%
viability at 10 µM (HOP-62): 104%
viability at 10 µM (A498): 102%
viability at 10 µM (SK-MEL-2): 110%
viability at 10 µM (NCI-H322M): 106%
viability at 10 µM (SK-MEL-28): 105%
viability at 10 µM (NCI-H23): 95.8%
viability at 10 µM (HT-29): 98.3%
viability at 10 µM (MDA-MB-231): 107%
viability at 10 µM (SF-295): 102%
viability at 10 µM (UACC-62): 97.3%
viability at 10 µM (Hs-578T): 99.8%
viability at 10 µM (NCI-H226): 99.1%
viability at 10 µM (NCI/ADR-RES): 105%
viability at 10 µM (LOX IMVI): 98.4%
viability at 10 µM (MCF7): 97.6%
viability at 10 µM (SF-539): 102%
viability at 10 µM (MDA-MB-468): 96.2%
viability at 10 µM (KM12): 103%
viability at 10 µM (SK-MEL-5): 102%
viability at 10 µM (SN12C): 104%
viability at 10 µM (SNB-75): 98.8%
viability at 10 µM (CAKI-1): 90.1%
viability at 10 µM (OVCAR-4): 105%
viability at 10 µM (EKVX): 99.1%
viability at 10 µM (RXF 393): 105%
viability at 10 µM (OVCAR-8): 99.8%

CCCOc1cc2c(cc1OCC)C1CC(O)C(O)C(O)C1NC2=O (racemic)
viability at 10 µM (NCI-H522): 96.7%
viability at 10 µM (MOLT-4): 104%
viability at 10 µM (HOP-62): 104%
viability at 10 µM (A498): 115%
viability at 10 µM (SK-MEL-2): 105%
viability at 10 µM (NCI-H322M): 104%
viability at 10 µM (NCI-H23): 108%
viability at 10 µM (HT-29): 107%
viability at 10 µM (MDA-MB-231): 118%
viability at 10 µM (SF-295): 102%
viability at 10 µM (UACC-62): 117%
viability at 10 µM (Hs-578T): 96.9%
viability at 10 µM (NCI-H226): 99.6%
viability at 10 µM (NCI/ADR-RES): 105%
viability at 10 µM (LOX IMVI): 96.7%
viability at 10 µM (MCF7): 99%
viability at 10 µM (SF-539): 99.2%
viability at 10 µM (MDA-MB-468): 112%
viability at 10 µM (KM12): 108%
viability at 10 µM (SK-MEL-5): 100%
viability at 10 µM (SN12C): 112%
viability at 10 µM (SNB-75): 95.3%
viability at 10 µM (CAKI-1): 95.9%
viability at 10 µM (OVCAR-4): 107%
viability at 10 µM (EKVX): 104%
viability at 10 µM (RXF 393): 109%
viability at 10 µM (OVCAR-8): 104%

O=C1NC2C(CC(O)C(O)C2O)c2cc3c(cc21)OCCO3 (racemic)
viability at 10 µM (NCI-H522): 101%
viability at 10 µM (MOLT-4): 103%
viability at 10 µM (HOP-62): 103%
viability at 10 µM (A498): 108%
viability at 10 µM (SK-MEL-2): 109%
viability at 10 µM (NCI-H322M): 104%
viability at 10 µM (NCI-H23): 107%
viability at 10 µM (HT-29): 105%
viability at 10 µM (MDA-MB-231): 109%
viability at 10 µM (SF-295): 101%
viability at 10 µM (UACC-62): 103%
viability at 10 µM (Hs-578T): 96.9%
viability at 10 µM (NCI-H226): 97.7%
viability at 10 µM (NCI/ADR-RES): 107%
viability at 10 µM (LOX IMVI): 97.8%
viability at 10 µM (MCF7): 98.6%
viability at 10 µM (SF-539): 101%
viability at 10 µM (MDA-MB-468): 107%
viability at 10 µM (KM12): 108%
viability at 10 µM (SK-MEL-5): 102%
viability at 10 µM (SN12C): 105%
viability at 10 µM (SNB-75): 98.3%
viability at 10 µM (CAKI-1): 94.4%
viability at 10 µM (OVCAR-4): 107%
viability at 10 µM (EKVX): 97.4%
viability at 10 µM (RXF 393): 116%
viability at 10 µM (OVCAR-8): 107%
